From article PMC9643419 (Nature Communications, 2022)

Legend:
TEAD1 = TEAD1 (Homo sapiens, UniProt P28347); assay: cell-based TEAD1 palmitoylation (alkyne palmitic acid labelling, HEK293A)
TEAD2 = TEAD2 (Homo sapiens, UniProt Q15562); assay: in vitro autopalmitoylation of recombinant TEAD2 with alkyne palmitoyl-CoA, click/streptavidin blot; format: biochemical
TEAD4 = TEAD4 (Homo sapiens, UniProt Q15561); assay: TEAD4 biochemical palmitoylation assay
TEAD4, sequence (Q15561 whole entry): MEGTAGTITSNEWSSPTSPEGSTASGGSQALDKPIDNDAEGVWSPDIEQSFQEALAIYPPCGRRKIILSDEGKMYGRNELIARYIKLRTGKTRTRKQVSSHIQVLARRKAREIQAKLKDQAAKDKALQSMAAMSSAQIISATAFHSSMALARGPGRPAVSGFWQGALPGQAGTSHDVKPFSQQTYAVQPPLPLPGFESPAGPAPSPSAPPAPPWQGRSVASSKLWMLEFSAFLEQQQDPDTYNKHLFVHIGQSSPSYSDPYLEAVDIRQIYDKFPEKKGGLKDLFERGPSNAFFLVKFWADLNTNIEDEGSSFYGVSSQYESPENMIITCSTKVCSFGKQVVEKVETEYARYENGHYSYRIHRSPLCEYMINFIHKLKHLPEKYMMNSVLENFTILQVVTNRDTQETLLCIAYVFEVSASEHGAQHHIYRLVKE

TEAD1, sequence (P28347 whole entry): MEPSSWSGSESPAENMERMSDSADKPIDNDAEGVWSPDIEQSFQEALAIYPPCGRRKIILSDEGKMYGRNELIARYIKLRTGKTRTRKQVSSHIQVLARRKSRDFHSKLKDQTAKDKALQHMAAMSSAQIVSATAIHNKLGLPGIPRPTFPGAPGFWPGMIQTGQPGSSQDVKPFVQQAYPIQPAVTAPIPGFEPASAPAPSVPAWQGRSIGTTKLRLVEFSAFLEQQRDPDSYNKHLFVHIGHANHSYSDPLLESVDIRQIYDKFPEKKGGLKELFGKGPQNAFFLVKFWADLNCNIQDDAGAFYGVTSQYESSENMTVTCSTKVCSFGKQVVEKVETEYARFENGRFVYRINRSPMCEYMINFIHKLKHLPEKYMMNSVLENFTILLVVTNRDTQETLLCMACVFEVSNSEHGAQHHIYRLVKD
TEAD2, sequence (Q15562 217-447): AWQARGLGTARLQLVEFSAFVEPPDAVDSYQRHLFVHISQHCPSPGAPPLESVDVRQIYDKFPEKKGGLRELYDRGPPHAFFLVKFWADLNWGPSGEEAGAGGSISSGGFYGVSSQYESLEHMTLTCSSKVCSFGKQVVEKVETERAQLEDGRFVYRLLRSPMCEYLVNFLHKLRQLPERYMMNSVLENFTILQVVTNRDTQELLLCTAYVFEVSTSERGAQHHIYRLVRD

| SMILES | cell-based TEAD1 palmitoylation (alkyne palmitic acid labelling, HEK293A) (TEAD1) | IC50 (TEAD2) | IC50 (TEAD4) |
| --- | --- | --- | --- |
| O=C(CSc1nnc[nH]1)Nc1ccc(C23CC4CC(CC(C4)C2)C3)cc1 [MGH-CP1, 2-((4H−1,2,4-triazol-3-yl)thio)-N-(4-((1 S,3 R,5 S)-adamantan-1-yl)phenyl)acetamide] | MGH-CP12 inhibits TEAD1 palmitoylation in cells more potently than MGH-CP1 (Fig. 1d) | – | – |
| O=C(CSc1nncs1)Nc1ccc(C23CC4CC(CC(C4)C2)C3)cc1 [MGH-CP28, 2-((1,3,4-thiadiazol-2-yl)thio)-N-(4-((1 S,3 R,5 S)-adamantan-1-yl)phenyl)acetamide] | – | 0.617 µM | – |
| O=C(CSc1nnc[nH]1)Nc1ccc(C23CC4CC(CC(C4)C2)C3)cc1Br [MGH-CP12, 2-((4H−1,2,4-triazol-3-yl)thio)-N-(4-((1 S,3 R,5 S)-adamantan-1-yl)−2-bromophenyl)acetamide] | MGH-CP12 inhibits TEAD1 palmitoylation in cells more potently than MGH-CP1 (Fig. 1d) | 0.106 µM | 0.852 µM |
